Experimental data published in patent US6803374B2, “Compounds useful for treating hepatitis C virus” (priority 2001, dated 2004).

Biological target: T1, HCV NS5B RdRp genotype 1b (Hepatitis C virus genotype 1b, UniProt Q9WMX2)
T1 construct: The protein was expressed with an 18 amino acid C-terminal truncation to enhance the solubility; made in house; host or cells: E. coli BL21(DE3)
Test: HCV NS5B RdRp enzyme assay
Format: biochemical
Settings: IC50, HCV RdRp genotype 1b enzyme, C-terminal 18 aa truncated; average of single point IC50 values
Method: HCV NS5B RdRp cloning, expression and purification. The cDNA encoding the NS5B protein of HCV, genotype 1b, was cloned into the pET21a expression vector. The protein was expressed with an 18 amino acid C-terminal truncation to enhance the solubility. The E. coli competent cell line BL21(DE3) was used for expression of the protein. Cultures were grown at 37° C. for ˜4 hours until the cultures reached an optical density of 2.0 at 600 nm. The cultures were cooled to 20° C. and induced with 1 mM IPTG. Fresh ampicillin was added to a final concentration of 50 ug/ml and the cells were grown overnight at 20° C.
Cell pellets (3L) were lysed for purification to yield 15-24 mgs of purified NS5B. The lysis buffer consisted of 20 mM Tris-HCl, pH 7.4, 500 mM NaCl, 0.5% triton X-100, 1 mM DTT, 1 mM EDTA, 20% glycerol, 0.5 mg/ml lysozyme, 10 mM MgCl2, 15 ug/ml deoxyribonuclease I, and Complete TM protease inhibitor tablets (Roche). After addition of the lysis buffer, frozen cell pellets were resuspended using a tissue homogenizer. To reduce the viscosity of the sample, aliquots of the lysate were sonicated on ice using a microtip attached to a Branson sonicator. The sonicated lysate was centrifuged at 100,000×g for 1 hr at 4° C. and filtered through a 0.2 μm filter unit (Corning).
The protein was purified using three sequential chromatography steps: Heparin sepharose CL-6B, polyU sepharose 4B, and Hitrap SP sepharose (Pharmacia). The chromatography buffers were identical to the lysis buffer but contained no lysozyme, deoxyribonuclease I, MgCl2 or protease inhibitor and the NaCl concentration of the buffer was adjusted according to the requirements for charging the protein onto the column. Each column was eluted with a NaCl gradient which varied in length from 5-50 column volumes depending on the column type. After the final chromatography step, the resulting purity of the enzyme is >90% based on SDS-PAGE analysis. The enzyme was aliquoted and stored at −80° C.
HCV NS5B RdRp enzyme assay. HCV RdRp genotype 1b assays were run in assay buffer composed of 20 mM Tris-HCl, pH 7.5, 2.5 mM KCl, 5 mM MgCl2, 1 mM DTT, 1.6 U RNAse inhibitor (Promega N2515), in 96 well plates (Falcon 3918). All compounds were serially diluted in DMSO and diluted further in assay buffer such that the final concentration of DMSO in the assay was 2%. Compounds were serially diluted (3-fold each time) for a 7 point inhibition analysis. HCV RdRp genotype 1b enzyme was used at a final concentration of 28 nM. A polyA template was used at 28 nM, and the oligo-dT12-18 primer was used at 840 nM final concentration. Preannealed primer and template were obtained commercially (Amersham 27-787802). ^3H-UTP was used at 0.125 μCi (1 μM total UTP). Reaction was initiated by the addition of enzyme. Reactions were incubated at 30° C. for 45 min, and stopped by adding 30 ul of 20% ice cold TCA. Plates were chilled for 30 minutes and harvested onto Unifilter-96, GF/B plates (Packard, 6005177) using a Packard FilterMate Cell Harvester. The harvest plates were prewashed 3 times, 200 ul/well, with 100 mM NaPPi. Harvested filters were washed 30 times, 200 ul/well, with distilled water followed by ethanol. Filter plates were dried, and 30 ul/well microscint-20 was added. Plates were read on a Packard Top Count NXT.
The IC50 values for compounds were determined using […] different [I], combined with 7 nM enzyme, 800 ng of the template-primer polyC/oligoG12 (1:5 molar ratio), and 0.7 uM of ^3H GTP containing 1 uCi. The observed fractional activity (fa=vi/vo) was used in the equation IC50=[I]/(1/fa-1) to determine a single point IC50 value. Typically, the single point IC50 values derived from [I] that produced fractional activities in the range of 0.1 to 0.8 relative to the uninhibited control were averaged to calculate the IC50 value for each compound.

T1 sequence (Q9WMX2 2420-2992): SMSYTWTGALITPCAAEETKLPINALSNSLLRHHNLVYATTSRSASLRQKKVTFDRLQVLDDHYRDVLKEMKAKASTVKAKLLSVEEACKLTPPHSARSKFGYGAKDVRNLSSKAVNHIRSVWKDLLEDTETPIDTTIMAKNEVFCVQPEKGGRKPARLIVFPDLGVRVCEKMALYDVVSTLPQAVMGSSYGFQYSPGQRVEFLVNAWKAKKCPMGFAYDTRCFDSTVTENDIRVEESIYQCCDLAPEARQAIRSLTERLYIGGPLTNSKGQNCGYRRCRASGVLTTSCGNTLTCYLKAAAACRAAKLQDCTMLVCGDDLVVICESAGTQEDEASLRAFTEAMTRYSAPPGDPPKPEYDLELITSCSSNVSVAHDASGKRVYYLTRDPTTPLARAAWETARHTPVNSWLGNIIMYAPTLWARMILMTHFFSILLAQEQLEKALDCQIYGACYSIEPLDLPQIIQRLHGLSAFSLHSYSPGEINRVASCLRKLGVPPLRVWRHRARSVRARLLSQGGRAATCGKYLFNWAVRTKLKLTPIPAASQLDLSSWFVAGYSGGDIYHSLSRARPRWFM

In order of rising IC50:
1. O=C(O)c1ccc(-c2ccc(Cl)cc2)c(COc2ccc(-c3nc4cc(-c5nnn[nH]5)ccc4n3C3CCCCC3)cc2)c1 [Example 23]  0.02 µM
2. COc1ccc(-c2ccc(C(=O)O)cc2COc2ccc(-c3nc4cc(-c5nnn[nH]5)ccc4n3C3CCCCC3)cc2)cc1 [Example 25]  0.04 µM
3. O=C(O)c1ccc(-c2ccc(F)c(Cl)c2)c(COc2ccc(-c3nc4cc(-c5nnn[nH]5)ccc4n3C3CCCCC3)cc2)c1 [Example 30]  0.04 µM
4. CC(=O)Nc1cccc(-c2ccc(C(=O)O)cc2COc2ccc(-c3nc4cc(-c5nnn[nH]5)ccc4n3C3CCCCC3)cc2)c1 [Example 32]  0.04 µM
5. O=C(O)c1ccc(-c2cccc(O)c2)c(COc2ccc(-c3nc4cc(-c5nnn[nH]5)ccc4n3C3CCCCC3)cc2)c1 [Example 33]  0.04 µM
6. N#Cc1ccc(-c2ccc(C(=O)O)cc2COc2ccc(-c3nc4cc(-c5nnn[nH]5)ccc4n3C3CCCCC3)cc2)cc1 [Example 34]  0.04 µM
7. O=C(O)c1ccc(-c2ccc(F)cc2)c(COc2ccc(-c3nc4cc(-c5nnn[nH]5)ccc4n3C3CCCCC3)cc2)c1 [Example 24]  0.05 µM
8. O=C(O)c1ccc(-c2ccc([N+](=O)[O-])cc2)c(COc2ccc(-c3nc4cc(-c5nnn[nH]5)ccc4n3C3CCCCC3)cc2)c1 [Example 41]  0.05 µM
9. O=C(O)c1ccc(-c2ccc(CO)cc2)c(COc2ccc(-c3nc4cc(-c5nnn[nH]5)ccc4n3C3CCCCC3)cc2)c1 [Example 42]  0.05 µM
10. O=C(O)C=Cc1ccc(-c2ccc(C(=O)O)cc2COc2ccc(-c3nc4cc(-c5nnn[nH]5)ccc4n3C3CCCCC3)cc2)cc1 [Example 47]  0.05 µM
11. O=C(O)c1ccc(-c2ccc(C(F)(F)F)cc2)c(COc2ccc(-c3nc4cc(-c5nnn[nH]5)ccc4n3C3CCCCC3)cc2)c1 [Example 31]  0.06 µM
12. O=C(O)c1ccc(-c2ccc(O)cc2)c(COc2ccc(-c3nc4cc(-c5nnn[nH]5)ccc4n3C3CCCCC3)cc2)c1 [Example 46]  0.06 µM
13. O=C(O)c1ccc(-c2ccccc2)c(COc2ccc(-c3nc4cc(-c5nnn[nH]5)ccc4n3C3CCCCC3)cc2)c1 [Example 35]  0.07 µM
14. O=Cc1ccc(-c2ccc(C(=O)O)cc2COc2ccc(-c3nc4cc(-c5nnn[nH]5)ccc4n3C3CCCCC3)cc2)cc1 [Example 37]  0.07 µM
15. COc1ccc(-c2ccc(C(=O)O)cc2COc2ccc(-c3nc4cc(-c5nnn[nH]5)ccc4n3C3CCCCC3)cc2)cc1OC [Example 44]  0.08 µM
16. CC(=O)c1ccc(-c2ccc(C(=O)O)cc2COc2ccc(-c3nc4cc(-c5nnn[nH]5)ccc4n3C3CCCCC3)cc2)cc1 [Example 45]  0.08 µM
17. CNC(=O)c1ccc(-c2ccc(C#N)cc2)c(COc2ccc(-c3nc4cc(-c5nnn[nH]5)ccc4n3C3CCCCC3)cc2)c1 [Example 49]  0.08 µM
18. COc1ccc(-c2ccc(Cl)cc2)c(COc2ccc(-c3nc4cc(-c5nnn[nH]5)ccc4n3C3CCCCC3)cc2)c1 [Example 3, 2-{4-[(4′-Chloro-4-methoxy-1,1′-biphenyl-2-yl)methoxy]phenyl}-1-cyclohexyl-5-(1H-tetrazol-5-yl)-1H-benzimidazole]  0.14 µM
19. CSc1ccc(-c2ccc(C(=O)O)cc2COc2ccc(-c3nc4cc(-c5nnn[nH]5)ccc4n3C3CCCCC3)cc2)cc1 [Example 26]  0.19 µM
20. CNC(=O)c1ccc(-c2ccc(Cl)cc2)c(COc2ccc(-c3nc4cc(-c5nnn[nH]5)ccc4n3C3CCCCC3)cc2)c1 [Example 50]  0.23 µM
21. Cc1ccc(-c2ccc(C(=O)O)cc2COc2ccc(-c3nc4cc(-c5nnn[nH]5)ccc4n3C3CCCCC3)cc2)cc1N [Example 43]  0.24 µM
22. O=C(O)c1ccc(-c2ccccc2-c2ccccc2)c(COc2ccc(-c3nc4cc(-c5nnn[nH]5)ccc4n3C3CCCCC3)cc2)c1 [Example 29]  0.25 µM
23. O=C(c1ccc(-c2ccc(Cl)cc2)c(COc2ccc(-c3nc4cc(-c5nnn[nH]5)ccc4n3C3CCCCC3)cc2)c1)N1CCC(O)CC1 [Example 48]  0.32 µM
24. COc1ccccc1-c1nc(COc2ccc(-c3nc4cc(-c5nnn[nH]5)ccc4n3C3CCCCC3)cc2)no1 [Example 5, 1-Cyclohexyl-2-[4-[5-(2-methoxyphenyl)-1,2,4-oxadiazol-3-ylmethoxy]phenyl]-5-[1H-tetrazol-5-yl]-1H-benzimidazole]  0.36 µM
25. CC(NC(=O)c1ccc(-c2cccc(O)c2)c(COc2ccc(-c3nc4cc(-c5nnn[nH]5)ccc4n3C3CCCCC3)cc2)c1)C(=O)O (stereo not shown) [Example 52]  0.47 µM
26. O=C(NC(Cc1ccc(O)cc1)C(=O)O)c1ccc(-c2cccc(O)c2)c(COc2ccc(-c3nc4cc(-c5nnn[nH]5)ccc4n3C3CCCCC3)cc2)c1 (stereo not shown) [Example 53]  0.57 µM
27. O=C(O)c1ccc(-c2cccc3ccccc23)c(COc2ccc(-c3nc4cc(-c5nnn[nH]5)ccc4n3C3CCCCC3)cc2)c1 [Example 28]  0.62 µM
28. c1ccc(C(Oc2ccc(-c3nc4cc(-c5nnn[nH]5)ccc4n3C3CCCCC3)cc2)c2ccccc2)cc1 [Example 1, 2-[4-(Diphenylmethoxy)phenyl]-1-cyclohexyl-5-(1H-tetrazol-5-yl)-1H-benzimidazole]  0.63 µM
29. O=C(O)c1ccc(-c2cncnc2)c(COc2ccc(-c3nc4cc(-c5nnn[nH]5)ccc4n3C3CCCCC3)cc2)c1 [Example 4, 3-[[4-[1-Cyclohexyl-5-(1H-tetrazol-5-yl)-1H-benzimidazol-2-yl]phenoxy]methyl]-4-(5-pyrimidinyl)benzoic acid]  0.63 µM
30. O=Cc1ccccc1-c1ccc(C(=O)O)cc1COc1ccc(-c2nc3cc(-c4nnn[nH]4)ccc3n2C2CCCCC2)cc1 [Example 36]  0.83 µM
31. O=c1[nH]c(-c2ccc3c(c2)nc(-c2ccc(OCc4ccccc4)cc2)n3C2CCCCC2)no1 [Example 10, 3-{2-[4-(Benzyloxy)phenyl]-1-cyclohexyl-1H-benzimidazol-5-yl}-1,2,4-oxadiazol-5(4H)-one]  0.85 µM
32. CC(C)(C)OC(=O)C(Cc1ccc(OC(C)(C)C)cc1)NC(=O)c1cccc(COc2ccc(-c3nc4cc(-c5nnn[nH]5)ccc4n3C3CCCCC3)cc2)c1 (stereo not shown) [Example 51]  0.93 µM
33. O=C(O)c1ccc(-c2cc(Cl)cc(Cl)c2)c(COc2ccc(-c3nc4cc(-c5nnn[nH]5)ccc4n3C3CCCCC3)cc2)c1 [Example 27]  1.01 µM
34. O=C(O)c1ccc(C(=O)NS(=O)(=O)c2ccc3c(c2)nc(-c2ccc(OCc4ccccc4)cc2)n3C2CCCCC2)cc1 [Example 18, 4-[2-(4-Benzyloxyphenyl)-1-cyclohexyl-1H-benzimidazole-5-sulfonylaminocarbonyl]-benzoic acid]  1.52 µM
35. COC(=O)c1ccc(C(=O)NS(=O)(=O)c2ccc3c(c2)nc(-c2ccc(OCc4ccccc4)cc2)n3C2CCCCC2)cc1 [Example 17, 4-[2-(4-Benzyloxyphenyl)-1-cyclohexyl-1H-benzoimidazole-5-sulfonylaminocarbonyl]-benzoic acid methyl ester]  5.21 µM
36. O=C(O)C(=O)NS(=O)(=O)c1ccc2c(c1)nc(-c1ccc(OCc3ccccc3)cc1)n2C1CCCCC1 [Example 22, [2-(4-Benzyloxy-phenyl)-1-cyclohexyl-1H-benzoimidazole-5-sulfonylamino]-3-oxo-acetic acid]  8.09 µM
37. O=C(O)CC(=O)NS(=O)(=O)c1ccc2c(c1)nc(-c1ccc(OCc3ccccc3)cc1)n2C1CCCCC1 [Example 20, 3-[2-(4-Benzyloxy-phenyl)-1-cyclohexyl-1H-benzoimidazole-5-sulfonylamino]-3-oxo-propionic acid]  8.2 µM
